ChEMBL document CHEMBL5149987, “Design, Synthesis, and Evaluation of WD-Repeat-Containing Protein 5 (WDR5) Degraders” (J Med Chem, 2021)
The source made the active and inactive calls. No cut-off for these calls is given here.

Key:
[1] = biological target: T1, WD repeat-containing protein 5 (Homo sapiens, UniProt P61964); test: (§1) Displacement of N-(4'-((17-(5,5-difluoro-7-(1H-pyrrol-2-yl)-5H-5l4,6l4-dipyrrolo[1,2-c:2',1'-f][1,3,2]diazaborinin-3-yl)-15-oxo-4,7,10-trioxa-14-azaheptadecyl)carbamoyl)-4-(4-methylpiperazin-1-yl)-[1,1'-biphenyl]-3-yl)-6-hydroxy-4-(trifluoromethyl)nicotinamide tracer from N-/C-terminal NanoLuc-fused full-length WDR5 (unknown origin) transfected in HEK293T cells incubated for 2 hrs by NanoBRET assay; assay type: cell-based
[2] = biological target: T1, WD repeat-containing protein 5; test: as §1, with “cell lysate” for “cells”; assay type: subcellular
[3] = biological target: T1, WD repeat-containing protein 5
Description: Binding affinity to recombinant WDR5 (unknown origin) expressed in Escherichia coli BL21 assessed as shift in melting temperature by DSF assay

[4] = biological target: T1, WD repeat-containing protein 5; test: Binding affinity to recombinant WDR5 (unknown origin) expressed in Escherichia coli BL21 assessed as dissociation constant by isothermal titration calorimetry
[5] = biological target: T1, WD repeat-containing protein 5; remark: listed apart in the source
Description: Binding affinity to recombinant WDR5 (unknown origin) expressed in Escherichia coli BL21 assessed as change in enthalpy by isothermal titration calorimetry

[6] = biological target: T1, WD repeat-containing protein 5; remark: listed apart in the source
Description: Binding affinity to recombinant WDR5 (unknown origin) expressed in Escherichia coli BL21 assessed as change in entropy by isothermal titration calorimetry

MV4-11 [7] = test: Cytotoxicity against human MV4-11 cells assessed as defect in cell proliferation at 10 uM incubated for 15 days with replacement of fresh medium containing compound on every third day; assay type: functional, cell-based; conditions: time 15.0 day
MV4-11 [8] = test: Cytotoxicity against human MV4-11 cells expressing VHL assessed as defect in cell proliferation at 5 to 10 uM incubated for 15 days with replacement of fresh medium containing compound on every third day; assay type: functional, cell-based; conditions: dose 5-10 µM, time 15.0 day

SMILES | IC50 [1] | IC50 [2] | deltaTm [3] | Kd [4] | deltaTm ([3]; filed as modulator) | deltaH [5] | TdeltaS [6] | Activity (MV4-11 [7]) | Activity (MV4-11 [8])
Cc1ncsc1-c1ccc(CNC(=O)[C@@H]2C[C@@H](O)CN2C(=O)[C@@H](NC(=O)CCOCCOCCOCCOCCOc2cc(-c3cn4c(n3)CCC4)ccc2CNC(=O)Cc2ccc(Cl)c(Cl)c2)C(C)(C)C)cc1 | ≥ 50 µM | ≥ 50 µM | 3.4 K | – | – | – | – | – | –
COc1ccc(-c2cn3c(n2)CCC3)cc1CNC(=O)Cc1ccc(Cl)c(Cl)c1 | ≥ 50 µM | ≥ 50 µM | – | 125 µM | 4.2 K | -10 kcal/mol | 0.7 kcal/mol | – | –
Cc1ncsc1-c1ccc(CNC(=O)[C@@H]2C[C@@H](O)CN2C(=O)[C@@H](NC(=O)CCOCCOCCOCCOCCOCCOCCOc2ccc(-c3cn4c(n3)CCC4)cc2CNC(=O)Cc2ccc(Cl)c(Cl)c2)C(C)(C)C)cc1 | ≥ 50 µM | ≥ 50 µM | 4.5 K | – | – | – | – | – | –
COc1cc(C(=O)NCCOCCOCCOCCOCCOCCOCCOCCNC(=O)c2ccc(-c3ccc(N4CCN(C)CC4)c(NC(=O)c4c[nH]c(=O)cc4C(F)(F)F)c3)cc2)ccc1NC(=O)[C@@H]1N[C@@H](CC(C)(C)C)[C@](C#N)(c2ccc(Cl)cc2F)[C@H]1c1cccc(Cl)c1F | ≥ 50 µM | ≥ 50 µM | 0.3 K | – | – | – | – | – | –
Cc1ncsc1-c1ccc(CNC(=O)[C@@H]2C[C@@H](O)CN2C(=O)[C@@H](NC(=O)CCOCCOCCOCCOc2ccc(-c3cn4c(n3)CCC4)cc2CNC(=O)Cc2ccc(Cl)c(Cl)c2)C(C)(C)C)cc1 | ≥ 50 µM | ≥ 50 µM | 3.6 K | – | – | – | – | – | –
COc1cc(C(=O)NCc2ccc(CNC(=O)c3ccc(-c4ccc(N5CCN(C)CC5)c(NC(=O)c5c[nH]c(=O)cc5C(F)(F)F)c4)cc3)cc2)ccc1NC(=O)[C@@H]1N[C@@H](CC(C)(C)C)[C@](C#N)(c2ccc(Cl)cc2F)[C@H]1c1cccc(Cl)c1F | ≥ 50 µM | ≥ 50 µM | 0.7 K | – | – | – | – | – | –
Cc1ncsc1-c1ccc(CNC(=O)[C@@H]2C[C@@H](O)CN2C(=O)[C@@H](NC(=O)CCOCCOCCOCCOCCOCCOCCOCCOc2ccc(-c3cn4c(n3)CCC4)cc2CNC(=O)Cc2ccc(Cl)c(Cl)c2)C(C)(C)C)cc1 | ≥ 50 µM | ≥ 50 µM | 4.6 K | – | – | – | – | – | –
Cc1ncsc1-c1ccc(CNC(=O)[C@@H]2C[C@@H](O)CN2C(=O)[C@@H](NC(=O)CCOCCOc2ccc(-c3cn4c(n3)CCC4)cc2CNC(=O)Cc2ccc(Cl)c(Cl)c2)C(C)(C)C)cc1 | ≥ 50 µM | ≥ 50 µM | 7 K | – | – | – | – | – | –
Cc1ncsc1-c1ccc(CNC(=O)[C@@H]2C[C@@H](O)CN2C(=O)[C@@H](NC(=O)CCOCCOCCOCCOCCOCCOc2ccc(-c3cn4c(n3)CCC4)cc2CNC(=O)Cc2ccc(Cl)c(Cl)c2)C(C)(C)C)cc1 | ≥ 50 µM | ≥ 50 µM | 4.3 K | – | – | – | – | – | –
COc1cc(C(=O)NCCOCCNC(=O)c2ccc(-c3ccc(N4CCN(C)CC4)c(NC(=O)c4c[nH]c(=O)cc4C(F)(F)F)c3)cc2)ccc1NC(=O)[C@@H]1N[C@@H](CC(C)(C)C)[C@](C#N)(c2ccc(Cl)cc2F)[C@H]1c1cccc(Cl)c1F | ≥ 50 µM | ≥ 50 µM | 0.9 K | – | – | – | – | – | –
Cc1ncsc1-c1ccc(CNC(=O)[C@@H]2C[C@@H](O)CN2C(=O)[C@@H](NC(=O)CCOCCOCCOc2ccc(-c3cn4c(n3)CCC4)cc2CNC(=O)Cc2ccc(Cl)c(Cl)c2)C(C)(C)C)cc1 | – | – | – | – | – | – | – | Active | Active
